One block for each molecule: values may come before it.
What was measured:
β-catenin/Tcf-4 = assay: cells; format: cell-based; details: 24 hours of incubation with compound, ratio Firefly/Renilla luciferase
In short: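 SW480-derived lines with integrated reporters (Tcf-4-driven firefly luciferase; SV40 firefly as specificity control; SV40 Renilla for cell number/toxicity), treated 24 hours with titrated compounds, final 0.316% DMSO. Dual-luciferase read-out; firefly/Renilla ratio as % of control, duplicate plates, IC50 (nM) from curve fit.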

SV40-Luc = SV40-Luc control luciferase reporter assay, SV 5A8 cell line (SV40-Luc and SV40-R-Luc), control for non-specific inhibitors; format: cell-based, human; details: SV 5A8 cells derived from SW480, 24 hours of incubation with compound, ratio Firefly/Renilla luciferase
In short: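 Dual-luciferase readout in SW480 lines with chromosomally integrated reporters, namely Tcf-4-driven firefly in Tcf 33.13 and Tcf 22C11, and SV40-driven firefly in SV 5A8, all with SV40-Renilla. Compound incubation is 24 h; IC50 comes from the normalised F/R ratio.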

[1] = Homo sapiens, SW480, 24 h, Tcf 33.13 cells derived from SW480
[2] = Homo sapiens, Tcf22C11, 24 h, Tcf 22C11 cells derived from SW480
[3] = Tcf 22C11 cells derived from SW480
[4] = Tcf 33.13 cells derived from SW480

Molecule: N-(4-{[(2-azetidin-1-yl-7-methylquinazolin-4-yl)amino]methyl}phenyl)-1-benzylpiperidine-4-carboxamide [Example 137]
- IC50 (β-catenin/Tcf-4; [3]): 1260 nM
- IC50 (β-catenin/Tcf-4; [4]): 1130 nM
- IC50 (SV40-Luc): > 17300 nM

Molecule: Cc1ccc2nc(N3CCN(c4ccccn4)CC3)nc(NCc3ccc(NC(=O)c4ccc(F)cc4)cc3)c2c1 [Example 55, 4-fluoro-N-[4-({[6-methyl-2-(4-pyridin-2-ylpiperazin-1-yl)quinazolin-4-yl]amino}methyl)phenyl]benzamide]
- IC50 (β-catenin/Tcf-4; [1]): 3260 nM
- IC50 (β-catenin/Tcf-4; [2]): 8650 nM
- IC50 (SV40-Luc; Homo sapiens, SV5A8, 24 h): > 18300 nM

Molecule: CCCCN1CCC(C(=O)Nc2ccc(CNc3nc(N(C)C)nc4cc(C)ccc34)cc2)CC1 [Example 249, 1-butyl-N-[4-({[2-(dimethylamino)-7-methylquinazolin-4-yl]amino}methyl)phenyl]piperidine-4-carboxamide]
- IC50 (β-catenin/Tcf-4; [1]): 1170 nM
- IC50 (β-catenin/Tcf-4; [2]): 1480 nM
- IC50 (SV40-Luc; Homo sapiens, SV5A8, 24 h): > 10500 nM

Molecule: CN(C)c1ccc(-c2ccc3nc(N(C)C)nc(NCc4ccc(NC(=O)c5ccc(F)cc5)cc4)c3c2)nc1 [Example 169]
- IC50 (β-catenin/Tcf-4; [3]): 229 nM
- IC50 (β-catenin/Tcf-4; [4]): 453 nM
- IC50 (SV40-Luc): > 2330 nM

Molecule: CNc1nc(NCc2ccc(NC(=O)c3ccc(Cl)cc3F)cc2)c2cc(C)cc(C)c2n1 [Example 35, 4-chloro-N-[4-({[6,8-dimethyl-2-(methylamino)quinazolin-4-yl]amino}methyl)phenyl]-2-fluorobenzamide]
- IC50 (β-catenin/Tcf-4; [1]): > 21600 nM
- IC50 (β-catenin/Tcf-4; [2]): > 21600 nM
- IC50 (SV40-Luc; Homo sapiens, SV5A8, 24 h): > 21600 nM

Molecule: CN(C)c1nc(NCc2ccc(NC(=O)c3ccc(F)cc3)cc2)c2cc(F)ccc2n1 [Example 60, N-[4-({[2-(dimethylamino)-6-fluoroquinazolin-4-yl]amino}methyl)phenyl]-4-fluorobenzamide]
- IC50 (β-catenin/Tcf-4; [1]): 1950 nM
- IC50 (β-catenin/Tcf-4; [2]): 5390 nM
- IC50 (SV40-Luc; Homo sapiens, SV5A8, 24 h): > 11500 nM

Molecule: Cc1ccc2c(NCc3ccc(NC(=O)C4CCN(Cc5ccccc5)CC4)cc3)nc(N(C)CCc3ccccn3)nc2c1 [Example 145, 1-benzyl-N-{4-[({7-methyl-2-[methyl(2-pyridin-2-ylethyl)amino]quinazolin-4-yl}amino)methyl]phenyl}piperidine-4-carboxamide]
- IC50 (β-catenin/Tcf-4; [1]): 1230 nM
- IC50 (β-catenin/Tcf-4; [2]): 1350 nM
- IC50 (SV40-Luc; Homo sapiens, SV5A8, 24 h): > 16700 nM

Molecule: Cc1ccc2nc(N(C)C)nc(NCc3ccc(NC(=O)c4ccc(F)cc4)cc3)c2c1 [Example 38, N-[4-({[2-(dimethylamino)-6-methylquinazolin-4-yl]amino}methyl)phenyl]-4-fluorobenzamide]
- IC50 (β-catenin/Tcf-4; [3]): 1620 nM
- IC50 (β-catenin/Tcf-4; [4]): 2050 nM
- IC50 (SV40-Luc; Homo sapiens, SV5A8, 24 h): > 11600 nM

Molecule: CN(C)c1nc(NCc2ccc(NC(=O)c3ccc(F)cc3)cc2)c2ccc(-c3cc4ccccc4o3)cc2n1 [Example 101, N-[4-({[7-(1-benzofuran-2-yl)-2-(dimethylamino)quinazolin-4-yl]amino}methyl)phenyl]-4-fluorobenzamide]
- IC50 (β-catenin/Tcf-4; [1]): 2950 nM
- IC50 (β-catenin/Tcf-4; [2]): 2250 nM
- IC50 (SV40-Luc; Homo sapiens, SV5A8, 24 h): > 17600 nM

Molecule: C/C=C/c1ccc2nc(N(C)C)nc(NCc3ccc(C(=O)Nc4ccc(F)cc4)cc3)c2c1 [Example 174, E-4-((2-dimethylamino)-6-(prop-1-enyl)quinazolin-4-ylamino)methyl-N-(4-fluorophenyl)benzamide]
- IC50 (β-catenin/Tcf-4; [3]): 436 nM
- IC50 (β-catenin/Tcf-4; [4]): 359 nM
- IC50 (SV40-Luc): > 5080 nM

Continued, values first:

- IC50 (β-catenin/Tcf-4; [1]): 530 nM
- IC50 (β-catenin/Tcf-4; [2]): 771 nM
- IC50 (SV40-Luc; Homo sapiens, SV5A8, 24 h): > 2220 nM
Molecule: Cc1ccc2nc(N3CCN[C@H](C)C3)nc(NCc3ccc(NC(=O)C4CCN(Cc5ccccc5)CC4)cc3)c2c1 [Example 85, 1-benzyl-N-{4-[({6-methyl-2-[(3R)-3-methylpiperazin-1-yl]quinazolin-4-yl}amino)methyl]phenyl}piperidine-4-carboxamide]

- IC50 (β-catenin/Tcf-4; [1]): 1470 nM
- IC50 (β-catenin/Tcf-4; [2]): 1930 nM
- IC50 (SV40-Luc; Homo sapiens, SV5A8, 24 h): > 8870 nM
Molecule: Cc1ccc2c(NCc3ccc(NC(=O)C4CCN(Cc5ccccc5)CC4)cc3)nc(N3CCN[C@H](C)C3)nc2c1 [Example 143, 1-benzyl-N-{4-[({7-methyl-2-[(3R)-3-methylpiperazin-1-yl]quinazolin-4-yl}amino)methyl]phenyl}piperidine-4-carboxamide]

- IC50 (β-catenin/Tcf-4; [1]): 327 nM
- IC50 (β-catenin/Tcf-4; [2]): 532 nM
- IC50 (SV40-Luc; Homo sapiens, SV5A8, 24 h): > 5060 nM
Molecule: CC(C)c1ccc2c(NCc3ccc(NC(=O)c4ccc(F)cc4)cc3)nc(N(C)C)nc2c1 [Example 61, N-[4-({[2-(dimethylamino)-7-isopropylquinazolin-4-yl]amino}methyl)phenyl]-4-fluorobenzamide]

- IC50 (β-catenin/Tcf-4; [1]): 1080 nM
- IC50 (β-catenin/Tcf-4; [2]): 970 nM
- IC50 (SV40-Luc; Homo sapiens, SV5A8, 24 h): > 5640 nM
Molecule: Cc1ccc2c(N[C@@H](C)c3ccc(NC(=O)c4ccc(F)cc4)cc3)nc(N(C)C)nc2c1 [Example 271, (S)—N-(4-(1-(2-(dimethylamino)-7-methylquinazolin-4-ylamino)ethyl)phenyl)-4-fluorobenzamide]

- IC50 (β-catenin/Tcf-4; [1]): 379 nM
- IC50 (β-catenin/Tcf-4; [2]): 452 nM
- IC50 (SV40-Luc; Homo sapiens, SV5A8, 24 h): > 1090 nM
Molecule: Cc1ccc2c(NCc3ccc(NC(=O)c4ccc(F)cc4)cc3)nc(N(C)CCO)nc2c1 [Example 214, 4-fluoro-N-{4-[({2-[(2-hydroxyethyl)(methyl)amino]-7-methylquinazolin-4-yl}amino)methyl]phenyl}benzamide]

- IC50 (β-catenin/Tcf-4; [1]): 315 nM
- IC50 (β-catenin/Tcf-4; [2]): 464 nM
- IC50 (SV40-Luc; Homo sapiens, SV5A8, 24 h): > 3220 nM
Molecule: Cc1ccc2c(NCc3ccc(NC(=O)c4ccc(F)cc4)cc3)nc(N3CCN(c4ncccn4)CC3)nc2c1 [Example 216, 4-fluoro-N-[4-({[7-methyl-2-(4-pyrimidin-2-ylpiperazin-1-yl)quinazolin-4-yl]amino}methyl)phenyl]benzamide]

- IC50 (β-catenin/Tcf-4; [1]): 1470 nM
- IC50 (β-catenin/Tcf-4; [2]): 3780 nM
- IC50 (SV40-Luc; Homo sapiens, SV5A8, 24 h): > 8210 nM
Molecule: C[C@H](Nc1nc(N(C)C)nc2cc(I)ccc12)c1ccc(NC(=O)c2ccc(Cl)nc2)cc1 [Example 105, 6-chloro-N-[4-((1S)-1-{[2-(dimethylamino)-7-iodoquinazolin-4-yl]amino}ethyl)phenyl]nicotinamide]

- IC50 (β-catenin/Tcf-4; [1]): 400 nM
- IC50 (β-catenin/Tcf-4; [2]): 530 nM
- IC50 (SV40-Luc; Homo sapiens, SV5A8, 24 h): > 4620 nM
Molecule: CN(C)c1nc(NCc2ccc(NC(=O)c3ccc(F)cc3)cc2)c2cc(I)ccc2n1 [Example 68, N-[4-({[2-(dimethylamino)-6-iodoquinazolin-4-yl]amino}methyl)phenyl]-4-fluorobenzamide]

- IC50 (β-catenin/Tcf-4; [1]): 181 nM
- IC50 (β-catenin/Tcf-4; [2]): 238 nM
- IC50 (SV40-Luc; Homo sapiens, SV5A8, 24 h): > 2520 nM
Molecule: C=Cc1ccc2c(NCc3ccc(NC(=O)c4ccc(Cl)nc4)cc3)nc(N(C)C)nc2c1 [Example 111, 6-chloro-N-[4-({[2-(dimethylamino)-7-vinylquinazolin-4-yl]amino}methyl)phenyl]nicotinamide]

- IC50 (β-catenin/Tcf-4; [1]): 1230 nM
- IC50 (β-catenin/Tcf-4; [2]): 1380 nM
- IC50 (SV40-Luc; Homo sapiens, SV5A8, 24 h): > 2670 nM
Molecule: CNc1nc(NCc2ccc(NC(=O)c3ccc(OC(F)(F)F)cc3)cc2)c2ccccc2n1 [Example 22, N-[4-({[2-(methylamino)quinazolin-4-yl]amino}methyl)phenyl]-4-(trifluoromethoxy)benzamide]

- IC50 (β-catenin/Tcf-4; [1]): 332 nM
- IC50 (β-catenin/Tcf-4; [2]): 674 nM
- IC50 (SV40-Luc; Homo sapiens, SV5A8, 24 h): > 1340 nM
Molecule: O=C(Nc1ccc(CNc2nc(NCc3ccco3)nc3ccccc23)cc1)c1ccc(F)cc1 [Example 124, 4-fluoro-N-{4-[({2-[(2-furylmethyl)amino]quinazolin-4-yl}amino)methyl]phenyl}benzamide]

- IC50 (β-catenin/Tcf-4; [1]): 3150 nM
- IC50 (β-catenin/Tcf-4; [2]): > 2500 nM
- IC50 (SV40-Luc; Homo sapiens, SV5A8, 24 h): > 10000 nM
Molecule: COC[C@@H]1CCCN1c1nc(NCc2ccc(NC(=O)c3ccc(F)cc3)cc2)c2ccc(C)cc2n1 [Example 205, 4-fluoro-N-{4-[({2-[(2S)-2-(methoxymethyl)pyrrolidin-1-yl]-7-methylquinazolin-4-yl}amino)methyl]phenyl}benzamide]

Source: US20090004185A1, “AMINO-SUBSTITUTED QUINAZOLINE DERIVATIVES AS INHIBITORS OF BETA-CATENIN/TCF-4 PATHWAY AND CANCER TREATMENT AGENTS” (WYETH, priority 2007, published 2009)
